# Read-outs that look alike come from different tables or passages of the source.
# Legend:
# [1] = test system: HSV-1; experiment: HSV-1 PFU production in Vero cell cultures; assay type: cell-based, HSV-1 (MacIntyre strain)
# [2] = test system: Fetal Foreskin Cells; experiment: Cell viability by trypan blue exclusion, fetal foreskin cells; assay type: cell-based, human; details: for Fetal Foreskin Cells No. Viable: 9 mM n-docosanol in 1.4 mM surfactant (4:1 w:w), trypan blue exclusion; for Fetal Foreskin Cells % Control: 9 mM n-docosanol in 1.4 mM surfactant, control = media only
# Procedure: Typical data are presented in Table 3, showing that the total number of viable Vero cells and foreskin fibroblasts was unchanged after 24 hr to 72 hr incubation with the aliphatic alcohol suspension.
# [3] = Inflammation or toxicity at treated skin sites (Example 15); details: 96 hours, alone or in combination
# [4] = test system: vaccinia virus; experiment: microbe, parasite or virus in culture; assay type: cell-based, vaccinia virus (WR strain); details: cultures that lacked PFA; 15 mM n-docosanol
# [5] = test system: HSV-2; experiment: Cutaneous HSV-2 model in hairless guinea pigs, combination cream (Example 15); assay type: in vivo
# [6] = test system: HSV-2; experiment: Topical treatment of HSV-2 in guinea pig model, number of vesicles (Example 9); assay type: in vivo, hairless guinea pigs; details: mean; for Number of Vesicles Day 2: 48 hr post-inoculation; for Number of Vesicles Day 3: 72 hr post-inoculation; for Number of Vesicles Day 4: 96 hr post-inoculation
# [7] = test system: Varicella Zoster Virus (VZV); experiment: VZV infectious center assay in MRC-5 cells; assay type: cell-based, human varicella zoster virus (Ellen strain); details: for IC per Culture × 10^−4: no ACV, medium only 35
# [8] = test system: Vero cells; details: African green monkey, 9 mM
# [9] = test system: all cell lines tested; experiment: Cytotoxicity in mammalian cell cultures; details: read-out: IC50 (cellular toxicity by chain length)
# Excerpt: Three assays were used to quantitate the effects of aliphatic alcohols on cell survival and proliferation: 1) counting cells with a hemocytometer and determining the number of cells that exclude trypan blue; 2) measuring the incorporation of ^3H-thymidine into cellular DNA by adding ^3H-thymidine (from New England Nuclear) to the culture medium, lysing the cells with water and harvesting the DNA onto filter paper; and 3) measuring total cellular protein using a sulforhodamine assay adapted for use in 96-well microtiter plates (Skehan et al., J. Natl. Cancer Inst. […] All of these methods are well known cell viability and cytotoxicity assays.
# [10] = test system: Early viral protein synthesis; details: Katz et al. 1991; cited from earlier work
# [11] = test system: HSV-2; experiment: Inhibition of HSV-2 plaque formation in Vero cells
# [12] = test system: human foreskin fibroblasts; experiment: Cell proliferation (cytostasis), sulforhodamine staining; assay type: cell-based; details: 1,000 cells/well, 96-hours incubation
# Procedure: The effects of n-docosanol and n-docosane suspensions on cell proliferation (cytostasis) were quantitated using the sulforhodamine staining assay on cultures of human foreskin fibroblasts incubated in 96-well plates.
# Foreskin fibroblasts were plated with or without aliphatic alcohol suspensions or control surfactant suspensions at 1,000 cells/well (FIG. 6A and FIG. 7) or at 30,000 cells/well (FIG. 6B) in 96 well plates. After incubation for 72 hr or 96 hr at 37° C., cells were precipitated with trichloroacetic acid, stained with sulforhodamine and quantitated by measuring the OD540 in a microtiter plate reader.
# [13] = test system: B cell hybridoma (MBI-9); experiment: 3H-thymidine incorporation into DNA of B cell hybridoma; assay type: cell-based, murine; details: Mus musculus, 48 hr incubation, read-out: IC50 estimated by extrapolation
# [14] = male, hairless, guinea pig, in vivo, 2 day
# [15] = test system: Cytomegalovirus (CMV); experiment: CMV infectious center assay in MRC-5 cells; assay type: cell-based, human cytomegalovirus (Towne strain)
# [16] = Human alphaherpesvirus 2, Vero, read-out: Percent Inhibition of Plaque Formation
# [17] = Human betaherpesvirus 5, MRC5, read-out: % Inhibition of infected cells
smiles,measurement,setting,value
CCCCCCCCCCCCCCCCCCCCCCO [n-docosanol],fewer HSV-1 PFU than untreated cultures,"[1]; 15 mM n-docosanol alone, three days post-infection",about 10 fold
same,inhibition at 3300 µM,"[1]; Human alphaherpesvirus 1, Vero, read-out: inhibition of PFU production",55%
same,Fetal Foreskin Cells No. Viable,[2]; 24 hr,2.41 × 10^5
same,Fetal Foreskin Cells No. Viable,[2]; 48 hr,2.78 × 10^5
same,Fetal Foreskin Cells No. Viable,[2]; 72 hr,2.72 × 10^5
same,Fetal Foreskin Cells % Control,[2]; 24 hr,131%
same,Fetal Foreskin Cells % Control,[2]; 48 hr,118%
same,Fetal Foreskin Cells % Control,[2]; 72 hr,118%
same,induced inflammation or toxicity,[3],not detected
same,inhibition of vaccinia virus replication (in words),[4],does not inhibit replication of vaccinia virus
same,reduction of mean vesicle numbers,"[5]; 96 hours post-HSV-2-inoculation, cream two times daily, untreated mean 27 vesicles",63%
same,mean AUC (mean number of vesicles times hours vesicles were observed),"[5]; cream two times daily, untreated 698",464 vesicle hours
same,inhibition of AUC,[5]; vs untreated AUC 698 vesicle hours,34%
same,Number of Vesicles Day 2,[6]; 10% w/w cream topically 3X/day from 24 hr post-inoculation,40
same,Number of Vesicles Day 3,[6]; 10% w/w cream topically 3X/day,12
same,Number of Vesicles Day 4,[6]; 10% w/w cream topically 3X/day,3
same,Number of Vesicles Day 2,[6]; 10% w/w cream topically 5X/day,43
same,Number of Vesicles Day 3,[6]; 10% w/w cream topically 5X/day,5
same,Number of Vesicles Day 4,[6]; 10% w/w cream topically 5X/day,3
same,EC50,"[7]; Human alphaherpesvirus 3, MRC5, MRC-5 cells, read-out: n-docosanol EC50 for inhibition of VZV replication",~10 mM
same,inhibition at 3300 µM,"[7]; Human alphaherpesvirus 3, MRC5, VZV, n-Docosanol 3.3 mM, read-out: % Inhibition of infected cells",40%
same,inhibition at 10000 µM,"[7]; Human alphaherpesvirus 3, MRC5, VZV, n-Docosanol 10 mM, read-out: % Inhibition of infected cells",57%
same,inhibition at 30000 µM,"[7]; Human alphaherpesvirus 3, MRC5, VZV, n-Docosanol 30 mM, read-out: % Inhibition of infected cells",80%
same,IC per Culture × 10^−4,"[7]; VZV, n-Docosanol 3.3 mM",21 × 10^−4
same,IC per Culture × 10^−4,"[7]; VZV, n-Docosanol 10 mM",15 × 10^−4
same,IC per Culture × 10^−4,"[7]; VZV, n-Docosanol 30 mM",7 × 10^−4
same,Vero Cells % Control,[8]; 24 h,101%
same,Vero Cells No. Viable,[8]; 24 h,7.48 × 10^5
same,Vero Cells % Control,[8]; 48 h,137%
same,Vero Cells No. Viable,[8]; 48 h,8.69 × 10^5
same,Vero Cells % Control,[8]; 72 h,120%
same,Vero Cells No. Viable,[8]; 72 h,8.61 × 10^5
same,IC50,[9],> 15 mM
same,inhibition of early viral protein synthesis,[10],more than 80%
same,fewer plaques than untreated or PLURONIC F-68-treated controls,"[11]; 3 mM n-docosanol, without ACV",40%
same,EC50,"[11]; Human alphaherpesvirus 2, Vero, read-out: 50% Inhibition Concentration (mM)",8.6 mM
same,EC50,"[11]; Human alphaherpesvirus 2, Vero, read-out: EC50 of plaque formation inhibition, octoxynol (TRITON X-100) suspension",~4.5 mM
same,inhibition at 1000 µM,[11]; [16],14%
same,inhibition at 2000 µM,[11]; [16],40%
same,inhibition at 4000 µM,[11]; [16],36%
same,inhibition at 8000 µM,[11]; [16],44%
same,inhibition at 15000 µM,[11]; [16],66%
same,EC50,"[11]; Human alphaherpesvirus 2, Vero, read-out: amount of n-docosanol required for 50% inhibition of plaque production, after increasing the ratio of surfactant to n-docosanol",3 mM
same,EC50,"[11]; Human alphaherpesvirus 2, Vero, read-out: amount of n-docosanol required for 50% inhibition of plaque production, before increasing the ratio of surfactant to n-docosanol",15 mM
same,EC50,"[11]; Human alphaherpesvirus 2, Vero, read-out: effective concentration required to inhibit plaque formation by 50% (EC50), surfactant suspension, Example 5",9 mM
same,EC50,"[11]; Human alphaherpesvirus 2, Vero, read-out: n-docosanol EC50, HSV-2 plaque formation, in conjunction with ACV in the range of 0.2-10 μM",2 to 3 mM
same,EC50,"[11]; Human alphaherpesvirus 2, Vero, read-out: n-docosanol EC50, HSV-2 plaque formation, used alone",2 to 3 mM
same,n-docosanol concentrations inhibiting plaque formation relative to octoxynol control,[11]; octoxynol (TRITON X-100) suspension,greater than or equal to 2 mM
same,n-docosanol concentration that inhibited proliferation of cells,[12],greater than 3 mM
same,IC50,[13],~20 mM
same,Irritation Score Day 2,[14],0
same,inhibition at 3300 µM,[15]; [17],20%
same,inhibition at 10000 µM,[15]; [17],60%
same,inhibition at 30000 µM,[15]; [17],85%
same,EC50,"[15]; Human betaherpesvirus 5, MRC5, read-out: n-docosanol EC50 for inhibition of CMV replication, MRC-5 cells",~10 mM

# — patent US6440980B1, “Synergistic inhibition of viral replication by long-chain hydrocarbons and nucleoside analogs” (Avanir Pharmaceuticals, priority 1996, dated 2002)
